Patent US6838462B2, “Insecticidal azoles” (Bayer CropScience LP, priority 2001, dated 2005)

Tests used:
Assay type in all cases: in vivo
[1] = tested on: Third larval stages of Periplanela americana; experiment: Test with cockroaches - dip treatment; conditions: dip treatment 60 seconds, after 7 days, 100% = all cockroach larvae killed
Experimental: Test with Cockroaches—Dip Treatment
Test animals: Third larval stages of Periplanela americana
(§1) Solvent: Dimethyl sulphoxide
(§2) 20 mg of active compound are dissolved in one ml of dimethyl sulphoxide. To prepare a suitable formulation, the solution of active compound is diluted with water to the particular concentration desired.
[…] of this preparation of active compound are pipetted into tubes (Ø 1.5 cm, H 10 cm). 4 cockroach larvae are anaesthetized with CO2 and transferred into a tube (Ø 1.2 cm, H 9 cm) with 3 holes (bottom and 5 cm below the upper rim). […] The tube is dipped into the preparation of active compound for 60 seconds, with all cockroach larvae being wetted completely. After the liquid has run off, the cockroach larvae are transferred to filter discs in PP dishes (Ø 9.7 cm. H 8 cm).
After 2 and 24 hours and after 7 days, the activity of the preparation of active compound is determined. 100% means that all cockroach larvae have been killed; 0% means that none of the cockroach larvae have been killed.

Lucilia cuprina larvae = experiment: Blowfly larvae test / development-inhibitory action; conditions: 48 h, read-out: % action (mortality of larvae)
Experimental: Blowfly Larvae Test/Development-Inhibitory Action
Test animals: Lucilia cuprina larvae
as §1, §2
About 20 Lucilia cuprina larvae are introduced into a test tube which contains about 1 cm^3 of horsemeat and 0.5 ml of the preparation of active compound to be tested. The activity of the preparation of active compound is determined after 48 hours as the mortality of the larvae in %.
The test tubes are then transferred into a beaker whose bottom is covered with sand. After a further 12 days, the test tubes are removed and the pupae and flies are counted. The development-inhibitory action is stated as inhibition of hatching in % (ratio of pupae to flies that have hatched) after 1.5 times the development period of an untreated control.

[2] = tested on: Adults of Ctenocephalides felis, strain "Georgi"; experiment: Test with cat fleas / oral uptake; conditions: 24 h, read-out: % action (mortality of larvae)
Experimental: Test with Cat Fleas/Oral Uptake
Test animals: Adults of Crenocephalides felis
Solvent: Dimethyl sulphoxide (DMSO)
To produce a suitable preparation, a suitable solution of active compound is prepared from 20 mg of active compound and 1 ml of DMSO. 20 μl of this formulation are added to 4 ml of citrated cattle blood and stirred.
20 unfed adult fleas (Ctenocephalides felis, strain “Georgi”) are placed into a chamber (Ø 5 cm) whose top and bottom are closed with gauze. A metal cylinder whose underside is covered with parafilm is placed onto the chamber. The cylinder contains the 4 ml of blood/active compound formulation which can be taken up by the fleas through the parafilm membrane. Whereas the blood is warmed to 37° C., the temperature in the area of the flea chambers is adjusted to 25° C. Controls are mixed with the same volume of DMSO, without addition of a compound. The determinations are carried out triplicate.
After 24 h, the mortality in % is determined.
Compounds which effect an at least 25% kill of the fleas within 24 h are judged to be effective.

Cc1s/c(=N\C#N)n2c1N(Cc1ccc(Cl)nc1)CC2 [Compound I-1, 1-[6-Chloro-3-pyridylmethyl]-5-cyanoimino-7-methyl-4.5-dihydro[1,3]diazolano-[1,2-c][1,3]thiazoline]
100%: % action (7 d) ([1]; 100 ppm) | % action (7 d) ([1]; 300 ppm) | % action (7 d) ([1]; 1000 ppm) | mortality at 100 ppm (Lucilia cuprina larvae) | mortality at 300 ppm (Lucilia cuprina larvae) | mortality at 1000 ppm (Lucilia cuprina larvae)
30%: mortality at 100 ppm [2]
